Measured values: US6906188B2, “Method for synthesizing epothilones and epothilone analogs” (State of Oregon acting by and through the State Board of …, priority 2001, dated 2005)
Read-outs that look alike come from different tables or passages of the source.

Columns and labels:
PC3-M (prostate) = experiment: Antiproliferative activity (growth inhibition), PC3-M cells; assay type: cell-based; settings: Homo sapiens, PC-3M, read-out: IC50 PC3-M (prostate)
Description: (§1) The antiproliferative activity of cis 9,10-dehydroepothilone D and trans 9,10-dehydroepothilone D was assessed in vitro using a panel of human cancer cell lines.

porcine tubulin = porcine tubulin (Sus scrofa, UniProt P02554); experiment: Induction of porcine tubulin polymerization; assay type: biochemical
[1] = system: KB-8511 (Epidermoid), Pgp-overexpressing sub-line of KB-31; experiment: Antiproliferative activity (growth inhibition), KB-8511 cells; settings: Homo sapiens
Description: as §1

A549 (lung) = experiment: Antiproliferative activity (growth inhibition), A549 cells; assay type: cell-based; settings: Homo sapiens
Description: as §1

KB-31 (Epidermoid) = experiment: Antiproliferative activity (growth inhibition), KB-31 cells; assay type: cell-based; settings: Homo sapiens
Description: as §1

MCF-7 (breast) = experiment: Antiproliferative activity (growth inhibition), MCF-7 cells; assay type: cell-based; settings: Homo sapiens
Description: as §1

HCT-116 (colon) = experiment: Antiproliferative activity (growth inhibition), HCT-116 cells; assay type: cell-based; settings: Homo sapiens
Description: as §1

[2] = system: panel of human cancer cell lines; experiment: Antiproliferative activity across the cell line panel; assay type: cell-based
Text: Known epothilones have significant biological activity.

[3] = system: Pgp-expressing MDR neuroblastoma cell line (SK-N SH); settings: cited from earlier work
tubulin = settings: Merck comparison with Taxol; cited from earlier work
[4] = system: Potorous tridactylis kidney epithelial (PtK2) cells; settings: indirect immunofluorescence; cited from earlier work
[5] = system: subcutaneous implantations of tumor tissues; settings: mice, subcutaneous tumor implants, Sloan Kettering; cited from earlier work
[6] = system: IFN-γ-treated murine-macrophage; settings: IFN-γ-treated murine macrophages; cited from earlier work
[7] = mean of three independent experiments
[8] = 5 μM compound, relative to the effect of Epothilone B at 25 μM defined as 100%
[9] = KB 3-1, read-out: IC50 KB-8511 (Epidermoid), Table 1, Pgp-overexpressing sub-line, mean of three independent experiments
[10] = A549, mean of three independent experiments, read-out: IC50 A549 (lung)
[11] = KB 3-1, Table 1, mean of three independent experiments, read-out: IC50 KB-31 (Epidermoid)
[12] = MCF7, mean of three independent experiments, read-out: IC50 MCF-7 (breast)
[13] = HCT-116, mean of three independent experiments, read-out: IC50 HCT-116 (colon)
[14] = antiproliferative potency, cell line panel of Table 1
[15] = Table 2, under the conditions used for Table 1, unit not given
[16] = KB 3-1, read-out: IC50 KB-8511 (Epidermoid)
[17] = KB 3-1, Table 2, under the conditions used for Table 1 (there nM), unit inferred, read-out: IC50 KB-31 (Epidermoid)
[18] = KB 3-1, read-out: IC50 KB-8511 (Epidermoid), Table 2, under the conditions used for Table 1 (there nM), unit inferred
[19] = A549, read-out: IC50 A549 (lung)
[20] = KB 3-1, read-out: IC50 KB-31 (Epidermoid), Table 2, under the conditions used for Table 1 (there nM), unit inferred
[21] = MCF7, read-out: IC50 MCF-7 (breast)
[22] = HCT-116, read-out: IC50 HCT-116 (colon)

Chain of porcine tubulin (P02554 whole entry): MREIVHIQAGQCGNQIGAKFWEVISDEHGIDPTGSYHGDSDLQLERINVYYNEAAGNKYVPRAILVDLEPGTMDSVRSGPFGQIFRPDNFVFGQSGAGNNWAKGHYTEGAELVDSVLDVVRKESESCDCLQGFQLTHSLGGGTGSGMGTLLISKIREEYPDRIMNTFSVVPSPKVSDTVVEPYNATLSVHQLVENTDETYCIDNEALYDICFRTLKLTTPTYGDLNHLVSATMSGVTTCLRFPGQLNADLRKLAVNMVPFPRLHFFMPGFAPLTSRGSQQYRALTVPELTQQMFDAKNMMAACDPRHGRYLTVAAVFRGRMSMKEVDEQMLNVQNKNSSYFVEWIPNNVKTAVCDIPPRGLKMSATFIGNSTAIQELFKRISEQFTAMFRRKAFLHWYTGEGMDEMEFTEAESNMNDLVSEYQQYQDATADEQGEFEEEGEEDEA
Chain of porcine tubulin (P02550 whole entry partner): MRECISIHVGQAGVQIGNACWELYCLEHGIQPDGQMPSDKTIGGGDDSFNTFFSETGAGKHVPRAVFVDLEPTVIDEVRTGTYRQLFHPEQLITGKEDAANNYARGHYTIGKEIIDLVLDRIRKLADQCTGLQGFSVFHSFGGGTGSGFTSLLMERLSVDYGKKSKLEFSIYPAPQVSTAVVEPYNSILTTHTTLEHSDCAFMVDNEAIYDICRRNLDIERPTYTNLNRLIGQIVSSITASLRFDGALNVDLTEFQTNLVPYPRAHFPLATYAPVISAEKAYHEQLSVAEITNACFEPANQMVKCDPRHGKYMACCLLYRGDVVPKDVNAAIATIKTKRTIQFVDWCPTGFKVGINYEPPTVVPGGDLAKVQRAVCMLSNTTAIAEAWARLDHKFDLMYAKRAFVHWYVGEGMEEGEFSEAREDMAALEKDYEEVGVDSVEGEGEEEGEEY

IC50 (PC3-M (prostate); [7]) [nM]	Tubulin Polym. (porcine tubulin; [8]) [%]	IC50 [1, 9] [nM]	IC50 (A549 (lung); [10]) [nM]	IC50 (KB-31 (Epidermoid); [11]) [nM]	IC50 (MCF-7 (breast); [12]) [nM]	IC50 (HCT-116 (colon); [13]) [nM]	SMILES	Tubulin Polym. (porcine tubulin; [15])	also measured
146	56	28.5	109	59.4	72	102	C/C1=C/C[C@@H](/C(C)=C/c2csc(C)n2)OC(=O)C[C@H](O)C(C)(C)C(=O)[C@H](C)[C@@H](O)[C@@H](C)/C=C\C1 [9,10-cis-Dehydroepothilone D, 9,10-dehydrodes-epoxyepothilone B]	–	fold less potent than epothilone B [2, 14]: 330- to 670 fold; fold less potent than natural epothilone D [2, 14]: 20- to 30 fold
–	–	–	–	–	–	–	C/C1=C/C[C@@H](/C(C)=C/c2csc(C)n2)OC(=O)C[C@H](O)C(C)(C)C(=O)[C@H](C)[C@@H](O)[C@@H](C)C(=O)OC1 [Bislactone]	21.4	IC50 [1, 16]: 25.2 nM; IC50 (KB-31 (Epidermoid); [17]): 25.5 nM
–	–	–	–	–	–	–	C/C(=C\c1csc(C)n1)[C@@H]1CC2O[C@@H]2CCC[C@H](C)[C@H](O)[C@@H](C)C(=O)C(C)(C)[C@@H](O)CC(=O)O1 (stereo partly drawn) [Epothilone A]	–	activity against Pgp-expressing MDR neuroblastoma cell line [3]: active; potency as tubulin polymerization agent (rank order) (tubulin): epothilone B>epothilone A>Taxol
6.62	53	842	5.19	2.67	3.26	4.88	CC(=O)O[C@H]1C(=O)[C@@]2(C)[C@H]([C@H](OC(=O)c3ccccc3)[C@]3(O)C[C@H](OC(=O)[C@H](O)[C@@H](NC(=O)c4ccccc4)c4ccccc4)C(C)=C1C3(C)C)[C@]1(OC(C)=O)CO[C@@H]1C[C@@H]2O [Paclitaxel (Taxol), Paclitaxel]	38.9	IC50 [1, 18]: 661 nM; IC50 (KB-31 (Epidermoid); [17]): 2.9 nM
147	36	70.4	109	104	95	110	C/C1=C\C[C@@H](/C(C)=C/c2csc(C)n2)OC(=O)C[C@H](O)C(C)(C)C(=O)[C@H](C)[C@@H](O)[C@@H](C)/C=C/C1 [trans 9,10, trans 12,13-dehydroepothilone D]	–	average IC50 for growth inhibition, fold higher than cis 9,10-dehydroepothilone D ([2]; average over the cell line panel): 1.36 fold

SMILES	IC50 (PC3-M (prostate); [7]) [nM]	Tubulin Polym. (porcine tubulin; [8]) [%]	IC50 [1, 9] [nM]	IC50 (A549 (lung); [10]) [nM]	IC50 (KB-31 (Epidermoid); [11]) [nM]	IC50 (MCF-7 (breast); [12]) [nM]	IC50 (HCT-116 (colon); [13]) [nM]	Tubulin Polym. (porcine tubulin; [15])	also measured
C/C(=C\c1csc(C)n1)[C@@H]1C[C@@H]2O[C@]2(C)CCC[C@H](C)[C@H](O)[C@@H](C)C(=O)C(C)(C)[C@@H](O)CC(=O)O1 [Epothilone B]	–	95	0.16	–	–	–	–	81.4	IC50 (PC3-M (prostate)): 0.32 nM; potency as tubulin polymerization agent (rank order) (tubulin): epothilone B>epothilone A>Taxol; IC50 [1, 18]: 0.15 nM; IC50 (A549 (lung); [19]): 0.16 nM; formation of microtubule bundles [4]: most active, inducing extensive formation of microtubule bundles; in vivo antitumor effect compared with Taxol [5]: superiority; IC50 (KB-31 (Epidermoid); [20]): 0.24 nM; IC50 (MCF-7 (breast); [21]): 0.29 nM; IC50 (HCT-116 (colon); [22]): 0.34 nM; macrophage stimulatory activity as measured by nitric oxide release [6]: lacked any IFN-γ-treated murine-macrophage stimulatory activity
C/C1=C/C[C@@H](/C(C)=C/c2csc(C)n2)OC(=O)C[C@H](O)C(C)(C)C(=O)[C@H](C)[C@@H](O)[C@@H](C)CCC1 [Epothilone D]	–	88	–	–	–	–	–	62.3	IC50 (PC3-M (prostate)): 7.4 nM; IC50 [1, 16]: 1 nM; IC50 (A549 (lung); [19]): 4.62 nM; IC50 (KB-31 (Epidermoid); KB 3-1, read-out: IC50 KB-31 (Epidermoid), Table 1, mean of three independent experiments): 1.94 nM; IC50 (KB-31 (Epidermoid); [20]): 1.94 nM; IC50 (MCF-7 (breast); [21]): 2.31 nM; IC50 (HCT-116 (colon); [22]): 4.48 nM
